Laboratory results from PMC10140157, “Molecular determinants for differential activation of the bile acid receptor from the pathogen Vibrio parahaemolyticus” (The Journal of Biological Chemistry, 2023).

Assays:
[1] = target: T1, VtrA–VtrC periplasmic domain complex (heterodimer) (Vibrio parahaemolyticus, UniProt Q87GI3+Q87GI4); assay: isothermal titration calorimetry; assay type: binding
T1 construct: gene VPA1333; periplasmic domains: VtrC residues 31-161 with N-terminal His6 tag, coexpressed with VtrA residues 161-253 (pACYC-Duet-VtrC/VtrA, E. coli BL21(DE3)); heterodimer, bile acid lies in the beta-barrel, contacts printed are VtrC residues

[2] = target: T2, VtrA–VtrC periplasmic domain complex (heterodimer) (Vibrio parahaemolyticus, UniProt Q87GI3+Q87GI4, Q87GI3:S123A); assay: biochemical
T2 construct: gene VPA1333
Excerpt: (§1) isothermal titration calorimetry on VtrA–VtrC periplasmic domain complex (heterodimer)

[3] = target: T3, VtrA–VtrC periplasmic domain complex (heterodimer) (Vibrio parahaemolyticus, UniProt Q87GI3+Q87GI4, Q87GI3:H50A); assay: biochemical
T3 construct: gene VPA1333
Excerpt: as §1

[4] = target: T4, VtrA–VtrC periplasmic domain complex (heterodimer) (Vibrio parahaemolyticus, UniProt Q87GI3+Q87GI4, Q87GI3:Y151F); assay: biochemical
T4 construct: gene VPA1333
Excerpt: as §1

[5] = target: T5, VtrA–VtrC periplasmic domain complex (heterodimer) (Vibrio parahaemolyticus, UniProt Q87GI3+Q87GI4, Q87GI3:Y81A); assay: biochemical
T5 construct: gene VPA1333
Excerpt: as §1

[6] = target: T6, VtrA–VtrC periplasmic domain complex (heterodimer) (Vibrio parahaemolyticus, UniProt Q87GI3+Q87GI4, Q87GI3:Y151A); assay: biochemical
T6 construct: gene VPA1333
Excerpt: as §1

[7] = target: T1, VtrA–VtrC periplasmic domain complex (heterodimer); assay: isothermal titration calorimetry; crystal structure of the complex also solved ([…] Å); assay type: binding

Compound	Kd [1] [nM]	Kd [2] [nM]	Kd [3] [nM]	Kd [4] [nM]	Kd [5] [nM]	Kd [6] [nM]	Kd [7] [nM]
C[C@H](CCC(=O)O)[C@H]1CC[C@H]2[C@@H]3[C@H](O)C[C@@H]4C[C@H](O)CC[C@]4(C)[C@H]3C[C@H](O)[C@]12C [CA, cholate]	377	–	–	–	–	–	–
C[C@H](CCC(=O)O)[C@H]1CC[C@H]2[C@@H]3[C@H](O)C[C@@H]4C[C@H](O)CC[C@]4(C)[C@H]3CC[C@]12C [CDC, chenodeoxycholate]	–	202	904	1170	731	2280	310
C[C@H](CCC(=O)O)[C@H]1CC[C@H]2[C@@H]3CC[C@@H]4C[C@H](O)CC[C@]4(C)[C@H]3C[C@H](O)[C@]12C [DC, deoxycholate]	232	–	–	–	–	–	–
C[C@H](CCC(=O)NCC(=O)O)[C@H]1CC[C@H]2[C@@H]3[C@H](O)C[C@@H]4C[C@H](O)CC[C@]4(C)[C@H]3CC[C@]12C [GCDC, glycochenodeoxycholate]	211	–	–	–	–	–	–
C[C@H](CCC(=O)NCCS(=O)(=O)O)[C@H]1CC[C@H]2[C@@H]3CC[C@@H]4C[C@H](O)CC[C@]4(C)[C@H]3C[C@H](O)[C@]12C [TDC, taurodeoxycholate]	129	91.2	301	873	1190	2500	–
